This note sets out measurements from patent US9580390B2, “Indazole compounds as kinase inhibitors and method of treating cancer with same” (University Health Network, priority 2011, dated 2017).

In test [1] the test system is colon cancer cells (HCT116). The test is described as follows: Cancer cell line growth inhibition (SRB assay). Type of test: cell-based. To be noted: Homo sapiens, HCT-116, read-out: Cancer Cell Line GI50 Range HCT116.
For test [2], the system named is ovarian cancer cells (PA-1). The test is described as follows: Cancer cell line growth inhibition (SRB assay). It is filed as cell-based. To be noted: read-out: Cancer Cell Line GI50 Range PA-1.
The next test deals with TICs (Colon 12). The test is described as follows: Colon tumor-initiating cell growth inhibition (Alamar Blue). It is filed as cell-based. To be noted: 216 h, 9 days, read-out: Tumor Initiating Cell GI50 Range Colon 12.
The subject of the next test is TICs (Ovarian 2393A). Kind of test: Ovarian tumor-initiating cell growth inhibition (Alamar Blue). Type of test: cell-based. The note with it: 144 h; ovarian TICs, 6 days, Alamar Blue; read-out: Tumor Initiating Cell GI50 Range Ovarain 2393A.
Another test addresses T1, human PLK4 (Homo sapiens, UniProt O00444).
T1 construct: amino terminal GST fusion of residues 1-391 of human PLK4; made in house; host or cells: E. coli
T1 sequence (O00444 1-391): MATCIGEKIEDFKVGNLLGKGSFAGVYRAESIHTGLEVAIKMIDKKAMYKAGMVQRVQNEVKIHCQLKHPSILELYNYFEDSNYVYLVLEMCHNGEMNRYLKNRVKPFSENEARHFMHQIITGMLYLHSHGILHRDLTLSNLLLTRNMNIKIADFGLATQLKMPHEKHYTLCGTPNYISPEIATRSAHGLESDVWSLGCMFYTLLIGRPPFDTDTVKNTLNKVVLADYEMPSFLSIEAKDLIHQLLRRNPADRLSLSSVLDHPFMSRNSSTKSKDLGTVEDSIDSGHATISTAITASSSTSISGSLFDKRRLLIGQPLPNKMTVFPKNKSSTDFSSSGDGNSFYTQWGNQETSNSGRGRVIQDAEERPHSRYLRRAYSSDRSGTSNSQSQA
Kind of test: PLK4 inhibition assay (indirect ELISA). It is filed as biochemical. To be noted: 15 μM ATP. In short, it runs like this:
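Dephosphorylated GST-PLK4 (residues 1-391, E. coli; 4 nM) was preincubated 15 min with compound, then reacted 30 min with 15 μM ATP in HEPES pH 7.4, MgCl2, Brij 35 on MBP-coated plates. Phospho-MBP was detected by antibody/HRP ELISA at 450 nm; IC50 from 10-point titration by 4-parameter logistic fit, or single 10 μM % inhibition.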

In the next test the target is T2, human TTK (Homo sapiens, UniProt P33981).
T2 construct: amino terminal GST fusion of full length human TTK; purchased Invitrogen
T2 sequence (P33981 1-857): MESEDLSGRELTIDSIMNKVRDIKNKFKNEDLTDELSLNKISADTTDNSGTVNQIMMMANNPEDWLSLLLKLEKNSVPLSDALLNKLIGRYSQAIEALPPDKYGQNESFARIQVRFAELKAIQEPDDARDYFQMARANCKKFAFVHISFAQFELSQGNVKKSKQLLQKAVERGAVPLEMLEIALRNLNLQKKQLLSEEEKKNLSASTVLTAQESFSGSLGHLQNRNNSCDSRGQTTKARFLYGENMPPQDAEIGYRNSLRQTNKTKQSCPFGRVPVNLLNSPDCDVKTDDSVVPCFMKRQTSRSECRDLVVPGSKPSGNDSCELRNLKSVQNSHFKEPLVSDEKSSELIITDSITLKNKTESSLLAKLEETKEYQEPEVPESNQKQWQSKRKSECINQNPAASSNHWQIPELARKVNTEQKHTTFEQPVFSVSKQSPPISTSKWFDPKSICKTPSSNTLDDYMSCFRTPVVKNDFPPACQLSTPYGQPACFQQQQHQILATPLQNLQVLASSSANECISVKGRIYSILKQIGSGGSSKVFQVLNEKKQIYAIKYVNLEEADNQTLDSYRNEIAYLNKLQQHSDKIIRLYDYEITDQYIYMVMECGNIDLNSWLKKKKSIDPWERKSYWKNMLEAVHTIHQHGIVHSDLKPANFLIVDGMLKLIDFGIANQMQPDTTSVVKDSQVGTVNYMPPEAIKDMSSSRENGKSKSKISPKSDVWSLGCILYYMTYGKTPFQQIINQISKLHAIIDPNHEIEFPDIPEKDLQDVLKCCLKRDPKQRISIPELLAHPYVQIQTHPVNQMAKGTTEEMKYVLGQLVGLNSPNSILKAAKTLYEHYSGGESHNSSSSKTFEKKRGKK
The test is described as follows: TTK inhibition assay (indirect ELISA). It is filed as biochemical. To be noted: read-out: TTK IC50 Range.

A further test deals with Breast cancer cells. Kind of test: Cancer cell line growth inhibition (SRB assay). It is filed as cell-based. To be noted: Homo sapiens; MDA-MB-468; read-out: Cancer Cell Line GI50 Range MDA-MB-468.
[3] abbreviates: HCT116 colon cancer cells, SRB assay.
Setting [4] is: PA-1 ovarian cancer cells, SRB assay.

Read-outs that look alike come from different tables or passages of the source.

From the text for TICs (Colon 12): Materials and Methods: Non-tissue or tissue cultured treated T-75 flask and 96-well plates were purchased from VWR. Vitamin B-27 supplement, MEM NEAA (minimum essential medium non essential amino acids), sodium pyruvate, L-glutamine, N2 supplement, penicillin-streptomycin and fungizone/amphotericin B were obtained from Invitrogen. Lipid mixture, heparin and EGF were purchased from Sigma; bFGF from BD Biosciences. Tumor Initiating Cells (TICs) from colon were routinely maintained using non-tissue cultured treated T-75 flasks in DMEM:F12 medium containing 0.2×B-27 supplement, 4 ug/ml heparin, 1×MEM NEAA, 1× sodium pyruvate, 1 mM glutamine, 10 pg/ul bFGF, 20 pg/ul EGF, 1×N2 supplement, lipid mixture, penicillin-streptomycin and fungizone/amphotericin B. Ovarian TICs were routinely maintained using tissue cultured treated T-75 flasks in DMEM:F12 medium containing 1×B-27 supplement, 4 ug/ml heparin, 20 pg/ul bFGF, 20 pg/ul EGF and penicillin-streptomycin.
Assay Protocol: Compounds described herein were dissolved in DMSO and further diluted in cell culture medium for GI50 determination. Colon TICs were trypsinized and seeded into non-tissue cultured treated 96-well plates with 4,000 cells/well. After 24 h, compound was added into the cell culture at different concentrations, and the final concentration of DMSO was adjusted to 0.1%. Cells were then cultured at 37° C. for 9 days. Ovarian TICs were trypsinized and seeded into tissue cultured treated 96-well plates with 1,000 cells/well. After 24 h, compound was added into the cell culture at different concentrations, and the final concentration of DMSO was adjusted to 0.1%. Cells were then cultured at 37° C. for 6 days. Cell viability was assessed by Alamar Blue assay: 10 ul of Alamar Blue was added into each well. After 4 hours incubation at 37° C., fluorescence was recorded at excitation 544 and emission 590. GI50 (Growth inhibition) was calculated using GraphPad Prism 4.0 software.

With `O=C(Nc1ccc2[nH]nc(-c3ccc(OC4CCN(C5COC5)CC4)cc3)c2c1)C(c1ccsc1)N1CCCC1` (stereo not shown) [Example A184, N-(3-(4-((1-(oxetan-3-yl)piperidin-4-yl)oxy)phenyl)-1H-indazol-5-yl)-2-(pyrrolidin-1-yl)-2-(thiophen-3-yl)acetamide], the GI50 in test [1] (setting [3]) was less than 100 nM; in test [2] (setting [4]) it was less than 100 nM; in the test with TICs (Colon 12) (colon TICs, Alamar Blue) it was 100 to 500 nM; in the test with TICs (Ovarian 2393A), less than 100 nM. On human PLK4, the IC50 was less than 50 nM.

Turning to `CC[C@@H](NC(=O)c1ccc2[nH]nc(-c3ccc(OC4CCN(CCOC)CC4)cc3)c2c1)c1ccccc1Cl` [Example A128, (R)-N-(1-(2-chlorophenyl)propyl)-3-(4-((1-(2-methoxyethyl)piperidin-4-yl)oxy)phenyl)-1H-indazole-5-carboxamide], the concentration for 50% growth inhibition (GI50) in test [1] (setting [3]) is less than 100 nM; in test [2] (setting [4]), 100 to 500 nM; with TICs (Colon 12) (colon TICs, Alamar Blue) it was less than 100 nM; in the test on TICs (Ovarian 2393A) it was 100 to 500 nM. In addition, the half-maximal inhibitory concentration (IC50) on human PLK4 was less than 50 nM.

Turning to `Cc1ccccc1C(C(=O)Nc1ccc2[nH]nc(-c3ccc(OC4CCN(C)CC4)cc3)c2c1)N1CCCC1` (stereo not shown) [Example A133, N-(3-(4-((1-methylpiperidin-4-yl)oxy)phenyl)-1H-indazol-5-yl)-2-(pyrrolidin-1-yl)-2-(o-tolyl)acetamide], the GI50 in test [1] (setting [3]) is less than 100 nM; in test [2] (setting [4]), less than 100 nM; in the test on TICs (Colon 12) (colon TICs, Alamar Blue), less than 100 nM; in the test with TICs (Ovarian 2393A), 100 to 500 nM. Moreover, the IC50 on human PLK4 is less than 50 nM.

For the compound `CN1CCC(Oc2ccc(-c3n[nH]c4ccc(C(=O)N[C@H](CCO)c5ccccc5)cc34)cc2Cl)CC1` [Example A202, (R)-3-(3-chloro-4-((1-methylpiperidin-4-yl)oxy)phenyl)-N-(3-hydroxy-1-phenylpropyl)-1H-indazole-5-carboxamide], the GI50 was less than 100 nM in test [1] (setting [3]); less than 100 nM in test [2] (setting [4]); 100 to 500 nM in the test with TICs (Colon 12) (colon TICs, Alamar Blue); 100 to 500 nM in the test on TICs (Ovarian 2393A). At human PLK4, the IC50 was less than 50 nM.

Regarding `CN1CCC(Oc2ccc(-c3n[nH]c4ccc(C(=O)NC(c5ccccc5Cl)C5CC5)cc34)cc2)CC1` (stereo not shown) [Example A150, N-((2-chlorophenyl)(cyclopropyl)methyl)-3-(4-((1-methylpiperidin-4-yl)oxy)phenyl)-1H-indazole-5-carboxamide], the concentration for 50% growth inhibition (GI50) in test [1] (setting [3]) is less than 100 nM; in test [2] (setting [4]), less than 100 nM; in the test with TICs (Colon 12) (colon TICs, Alamar Blue), less than 100 nM; with TICs (Ovarian 2393A) it was less than 100 nM. Moreover, at human PLK4, the IC50 is less than 50 nM.

Take `COCCN1CCC(Oc2ccc(-c3n[nH]c4ccc(NC(=O)C(c5ccsc5)N5CCCC5)cc34)cc2)CC1` (stereo not shown) [Example A175, N-(3-(4-((1-(2-methoxyethyl)piperidin-4-yl)oxy)phenyl)-1H-indazol-5-yl)-2-(pyrrolidin-1-yl)-2-(thiophen-3-yl)acetamide]: the concentration for 50% growth inhibition (GI50) was less than 100 nM in test [1] (setting [3]); less than 100 nM in test [2] (setting [4]); 100 to 500 nM with TICs (Colon 12) (colon TICs, Alamar Blue); less than 100 nM with TICs (Ovarian 2393A). The IC50 on human PLK4 is less than 50 nM.

Turning to `CC(C)OC(C(=O)Nc1ccc2[nH]nc(-c3ccc(OC4CCN(C)CC4)cc3)c2c1)c1ccccc1` (stereo not shown) [Example A187, 2-isopropoxy-N-(3-(4-((1-methylpiperidin-4-yl)oxy)phenyl)-1H-indazol-5-yl)-2-phenylacetamide], the GI50 is less than 100 nM in test [1] (setting [3]); less than 100 nM in test [2] (setting [4]); 100 to 500 nM with TICs (Colon 12) (colon TICs, Alamar Blue); greater than 500 nM in the test on TICs (Ovarian 2393A). Further, on human PLK4, the 50% inhibitory concentration (IC50) is less than 50 nM.

For `O=CN1CCC(Oc2ccc(-c3n[nH]c4ccc(NC(=O)C(c5ccsc5)N5CCCC5)cc34)cc2)CC1` (stereo not shown) [Example A118, N-(3-(4-((1-formylpiperidin-4-yl)oxy)phenyl)-1H-indazol-5-yl)-2-(pyrrolidin-1-yl)-2-(thiophen-3-yl)acetamide], the GI50 in test [1] (setting [3]) is less than 100 nM; in test [2] (setting [4]), less than 100 nM; in the test with TICs (Colon 12) (colon TICs, Alamar Blue), 100 to 500 nM; in the test on TICs (Ovarian 2393A), less than 100 nM. For the same compound, at human PLK4, the IC50 was less than 50 nM.

For `CCOC(C(=O)Nc1ccc2[nH]nc(-c3ccc(OC4CCN(C)CC4)cc3)c2c1)c1ccccc1` (stereo not shown) [Example A181, 2-ethoxy-N-(3-(4-((1-methylpiperidin-4-yl)oxy)phenyl)-1H-indazol-5-yl)-2-phenylacetamide], the GI50 in test [1] (setting [3]) is 100 to 500 nM; in test [2] (setting [4]), 100 to 500 nM; with TICs (Colon 12) (colon TICs, Alamar Blue), 100 to 500 nM; in the test on TICs (Ovarian 2393A), greater than 500 nM. Also, at human PLK4, the half-inhibitory concentration (IC50) was less than 50 nM.

`CN1CCC(Oc2ccc(-c3n[nH]c4ccc(C(=O)NC(c5ccccc5F)C5CC5)cc34)cc2)CC1` (stereo not shown) [Example A136, N-(cyclopropyl(2-fluorophenyl)methyl)-3-(4-((1-methylpiperidin-4-yl)oxy)phenyl)-1H-indazole-5-carboxamide]: the GI50 in test [1] (setting [3]) is less than 100 nM; in test [2] (setting [4]), less than 100 nM; in the test with TICs (Colon 12) (colon TICs, Alamar Blue) it was greater than 500 nM; in the test on TICs (Ovarian 2393A) it was less than 100 nM. At human PLK4, the IC50 was less than 50 nM.

With `O=C(NCC1(c2ccccc2)CCOCC1)c1ccc2[nH]nc(-c3ccc(N4[C@@H]5CC[C@H]4C[C@@H](O)C5)cc3)c2c1` [Example A492, 3-(4-((1R,3R,5S)-3-hydroxy-8-azabicyclo[3.2.1]octan-8-yI)phenyl)-N-((4-phenyltetrahydro-2H-pyran-4-yl)methyl)-1H-indazole-5-carboxamide], the IC50 was less than 100 nM on human TTK and less than 50 nM on human PLK4. Also, the 50% growth inhibitory concentration (GI50) with Breast cancer cells is less than 100 nM; in test [1], less than 100 nM; in test [2] (Homo sapiens, PA-1) it was less than 100 nM; in the test with TICs (Colon 12) (Colon 12 TICs), less than 100 nM.

With `O=CN1CCC(Oc2ccc(-c3n[nH]c4ccc(C(=O)NC(c5ccsc5)C5CC5)cc34)cc2)CC1` (stereo not shown) [Example A186, N-(cyclopropyl(thiophen-3-yl)methyl)-3-(4-((1-formylpiperidin-4-yl)oxy)phenyl)-1H-indazole-5-carboxamide], the GI50 in test [1] (setting [3]) was less than 100 nM; in test [2] (setting [4]) it was less than 100 nM; with TICs (Colon 12) (colon TICs, Alamar Blue), less than 100 nM; with TICs (Ovarian 2393A), less than 100 nM. The half-maximal inhibitory concentration (IC50) on human PLK4 was less than 50 nM.

With `O=C(Nc1ccc2[nH]nc(-c3ccc(OC4CCOCC4)cc3)c2c1)C(c1ccsc1)N1CCCC1` (stereo not shown) [Example A29, 2-(pyrrolidin-1-yl)-N-(3-(4-((tetrahydro-2H-pyran-4-yl)oxy)phenyl)-1H-indazol-5-yl)-2-(thiophen-3-yl)acetamide], the GI50 in test [1] (setting [3]) is less than 100 nM; with TICs (Colon 12) (colon TICs, Alamar Blue), less than 100 nM; with TICs (Ovarian 2393A), 100 to 500 nM. For the same compound, the IC50 on human PLK4 was less than 50 nM.

Take `C=CCCC(NC(=O)c1ccc2[nH]nc(-c3ccc(N4CCN(C5COC5)CC4)cc3)c2c1)c1ccccc1Cl` (stereo not shown) [Example A302, N-(1-(2-chlorophenyl)pent-4-en-1-yl)-3-(4-(4-(oxetan-3-yl)piperazin-1-yl)phenyl)-1H-indazole-5-carboxamide]: the IC50 is less than 100 nM on human TTK and less than 50 nM on human PLK4. The concentration for 50% growth inhibition (GI50) with Breast cancer cells was 100 to 500 nM; in test [1] it was less than 100 nM; in test [2] (Homo sapiens, PA-1), less than 100 nM.
